# Biological target: Glycogen synthase kinase-3 beta (Homo sapiens, UniProt P49841)
# Assay: concentration-response blocking of human GSK3B – biochemical, luminescence, cell-free homogeneous, retest, dose response (AID 434954)
# Chain of Glycogen synthase kinase-3 beta (P49841 whole entry): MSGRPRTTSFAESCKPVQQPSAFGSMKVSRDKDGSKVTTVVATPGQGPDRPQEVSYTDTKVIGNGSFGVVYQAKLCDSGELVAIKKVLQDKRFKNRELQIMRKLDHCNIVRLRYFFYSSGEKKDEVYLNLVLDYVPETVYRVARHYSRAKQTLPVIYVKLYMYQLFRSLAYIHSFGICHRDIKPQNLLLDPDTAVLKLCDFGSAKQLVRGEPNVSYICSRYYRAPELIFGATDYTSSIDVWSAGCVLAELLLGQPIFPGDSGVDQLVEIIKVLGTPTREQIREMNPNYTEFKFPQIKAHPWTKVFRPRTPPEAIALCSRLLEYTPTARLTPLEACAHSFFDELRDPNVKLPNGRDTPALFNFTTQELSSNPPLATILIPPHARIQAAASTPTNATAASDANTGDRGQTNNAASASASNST
row,SMILES,EC50 [µM]
1,NNc1nccc(Nc2ccccc2C(=O)O)n1 [2-[(2-hydrazinyl-4-pyrimidinyl)amino]benzoic acid],2.92
2,CC1=C(C(=O)OCC2CCCO2)C(c2ccsc2)C2C(=O)CC(C)(C)CC2=N1 (stereo unspecified) [SMR000279706],> 300
3,CCc1c(C(=O)Nc2ccccc2C(N)=O)csc1C [SMR000679541],> 300
4,COc1ccc(NC(=O)NC2CCCc3ccccc32)cc1 (stereo unspecified) [SMR000678136],> 300
5,Cc1cc(OCC(F)(F)C(F)(F)C(F)(F)C(F)F)nc(N)n1 [SMR000122155],> 300
6,O=C(Nc1ccccc1)ON=C1c2ccccc2-c2ccccc21 [9H-fluoren-9-one O-(anilinocarbonyl)oxime],> 300
7,O=C(Nc1ccncc1)c1ccccc1-c1ccccc1 [MLS000672259],14.5
8,O=NCc1ccc(SCc2ccccc2)c([N+](=O)[O-])c1 [SMR000169144],> 300
9,O=S(=O)(Nc1cccnc1)c1ccc(C2CCCCC2)cc1 [MLS000075296],> 300
10,O=C(NCc1ccco1)C(=O)c1cn(CC(=O)N2CCCC2)c2ccccc12 [N-(furan-2-ylmethyl)-2-oxidanylidene-2-[1-(2-oxidanylidene-2-pyrrolidin-1-yl-ethyl)indol-3-yl]ethanamide],> 300
11,c1ccc(CSc2nnc(-c3ccncc3)o2)cc1,5.14
12,O=C(Nc1cccc(-c2cnc3ccccc3n2)c1)c1ccccc1 [N-[3-(2-quinoxalinyl)phenyl]benzamide],> 300
13,"C=CCNc1nc(N)c([N+](=O)[O-])c(Nc2cccc(Cl)c2)n1 [N4-(3-chlorophenyl)-5-nitro-N2-prop-2-enyl-pyrimidine-2,4,6-triamine]",11.8
14,O=C(NC1CCCCCC1)C1CCCN(S(=O)(=O)c2cccs2)C1 (stereo unspecified) [N-cycloheptyl-1-thiophen-2-ylsulfonylpiperidine-3-carboxamide],> 300
15,Cc1cc(CN(C)C(=O)c2ccc(OC3CCN(CCc4ccccc4)CC3)cc2)on1 [MLS001100796],> 300
16,"C[C@]12C=CC(=O)C=C1CC[C@@H]1C2C(O)C[C@@]2(C)C1CC[C@]2(O)C(=O)COC(=O)CCC(=O)O (stereo partly drawn) [4-[2-[(8S,10R,11S,13S,17R)-11,17-dihydroxy-10,13-dimethyl-3-oxo-7,8,9,11,12,14,15,16-octahydro-6H-cyclopenta[a]phenanthren-17-yl]-2-oxoethoxy]-4-oxobutanoic acid]",> 300
17,Cc1c(Cl)cccc1NC(=S)N(C)CCC#N [3-(3-chloro-2-methylphenyl)-1-(2-cyanoethyl)-1-methylthiourea],> 300
18,COCCCn1c(-c2ccc(OC)cc2)nc2nc3ccccc3nc21,> 300
19,"CCc1ccc(C=NNC(=O)c2nnn(-c3nonc3N)c2CN2CCc3ccccc32)cc1 [1-(4-amino-1,2,5-oxadiazol-3-yl)-5-(2,3-dihydroindol-1-ylmethyl)-N-[(4-ethylphenyl)methylideneamino]triazole-4-carboxamide]",> 300
20,COCCNC(=O)c1ccc(Cl)c(Cl)c1 [SMR000069998],> 300
21,CCc1c(C)c2ccc(O)c(CN(C)C)c2oc1=O [8-[(dimethylamino)methyl]-3-ethyl-4-methyl-7-oxidanyl-chromen-2-one],> 300
22,Cc1ccc(S(=O)(=O)N/C(=N/C(C)C(=O)O)c2ccccc2)cc1 (stereo unspecified) [MLS000108658],> 300
23,"CC(C)(C)NC(=O)NC(=O)CSc1nncs1 [N-[(tert-butylamino)-oxomethyl]-2-(1,3,4-thiadiazol-2-ylthio)acetamide]",> 300
24,CC(C)CCSc1nnc(N)s1 [MLS000861787],> 300

row,SMILES,EC50 [µM]
1,O=c1[nH]nc(SCCS(=O)(=O)c2ccc(F)cc2)n1-c1ccc2c(c1)OCCO2 [SMR000456167],24.1
2,COCCN(CC(=O)NCc1ccc(OC)cc1)C(=O)CCC(=O)Nc1nccs1 [MLS000032576],> 300
3,CC(C)CC(=O)Nc1ccccc1-c1nnn(CC(=O)N2CCc3ccccc3C2)n1 [SMR000122537],> 300
4,COc1ccc(Nc2nc3ccc(OC)cc3s2)cc1 [MLS000684722],> 300
5,Cc1[nH]nc2c1C(c1cccs1)C1C(=O)CCCC1=N2 (stereo unspecified) [MLS001003570],10.6
6,COc1ccc(NC(=O)c2cccc(N3C(=O)c4cccc([N+](=O)[O-])c4C3=O)c2)cc1 [MLS001125857],> 300
7,COc1ccc(C(=O)c2coc3ccc(O)c(CN4CCCC4)c23)cc1 [[5-hydroxy-4-(1-pyrrolidinylmethyl)-3-benzofuranyl]-(4-methoxyphenyl)methanone],> 300
8,Cc1cc(C)c(C)c(S(=O)(=O)Nc2ccccc2C(=O)NCCCn2ccnc2)c1C [MLS000055504],> 300
9,COc1ccc(-c2nn(-c3ccccc3)cc2CN=Nc2ccc(Cl)c(C(=O)O)c2)cc1OC [SMR000371971],> 300
10,COc1cccc2cc(C(C)=O)c(=O)oc12 [3-acetyl-8-methoxy-2H-chromen-2-one],> 300
11,CC1=C(C#N)C(=O)NC(=O)C1=CNc1ccc(S(=O)(=O)N(C)C)cc1,> 300
12,"COc1ccc(Nc2nc(N)c(C(=O)c3ccc(OC)cc3)s2)cc1 [{4-amino-2-[(4-methoxyphenyl)amino]-1,3-thiazol-5-yl}(4-methoxyphenyl)methanone]",0.313
13,O=C(O)c1ccccc1Nc1ccc(OC(F)F)cc1 [SMR000372165],> 300
14,"O=S(=O)(NCCC1CC1(Cl)Cl)c1ccc(Cl)cc1 (stereo unspecified) [N1-[2-(2,2-dichlorocyclopropyl)ethyl]-4-chlorobenzene-1-sulfonamide]",> 300
15,COCc1c(C(=O)NN=Cc2ccncc2)nnn1-c1nonc1N [MLS001194772],40.1
16,Nc1nonc1-n1nnc(C(=O)NN=Cc2ccc(OCc3ccccc3F)cc2)c1CN1CCCCC1 [SMR000646487],> 300
17,"Cc1ccc(-c2nnc(SCc3ccccc3F)o2)cc1 [2-[(2-fluorobenzyl)thio]-5-(4-methylphenyl)-1,3,4-oxadiazole]",> 300
18,CC(=O)N1CCc2c(sc(NC(=O)Cc3ccccc3)c2C(N)=O)C1 [MLS000879211],24.4
19,CCOc1ccccc1NC(=O)N1CCC2(CC1)OCCO2 [MLS000581263],> 300
20,"CCCn1nc(NC(=O)C(C)C)c2cc3cc(OC)ccc3nc21 [N-(6-methoxy-1-propylpyrazolo[3,4-b]quinolin-3-yl)-2-methylpropanamide]",> 300
21,"O=C1OCCC1Sc1nnc(-c2ccc(O)cc2)o1 (stereo unspecified) [3-[[2-(4-oxo-1-cyclohexa-2,5-dienylidene)-3H-1,3,4-oxadiazol-5-yl]thio]-2-oxolanone]",14.3
22,O=c1c2c3c(sc2nc2n1N=C(c1cccs1)CS2)CCCC3 [SMR000161302],> 300
23,C[C@H]1[C@@H](c2ccccc2)O[C@@H](c2ccccc2Br)N1C [MLS001242758],> 300
24,Cc1c(CCOC(=O)CC23CC4CC(CC(C4)C2)C3)sc[n+]1CC(=O)c1ccc(Br)cc1 [SMR000155561],> 300

row,SMILES,EC50 [µM]
1,O=C(Nc1cccc(F)c1)c1cccc2c1C(=O)N(C1CCCCC1)C2 [MLS000912875],> 300
2,O=C(Cn1nnc(-c2ccccc2)n1)NN=Cc1ccc(-c2ccc(Cl)cc2)o1 [N'-{[5-(4-chlorophenyl)-2-furyl]methylene}-2-(5-phenyl-2H-tetrazol-2-yl)acetohydrazide],> 300
3,CCOC(=O)c1ccc(NC(=O)CSc2nnc(C3CC3)n2CC)cc1 [MLS000121467],> 300
4,"COc1ccc(-n2c(=O)c3c4c(sc3n3c(S)nnc23)CCCC4)cc1 [1-mercapto-4-(4-methoxyphenyl)-6,7,8,9-tetrahydro[1]benzothieno[3,2-e][1,2,4]triazolo[4,3-a]pyrimidin-5(4H)-one]",> 300
5,Cc1cc(NC(=O)CSc2nnc(C3CC3)n2Cc2ccccc2)no1 [MLS000566701],> 300
6,O=C(O)c1ccc2c3n(nc2c1)-c1ccc(Cl)cc1CO3 [SMR000673552],55.5
7,"COc1ccc(N(CN2C(=O)C3CC=CCC3C2=O)C(=O)c2ccco2)cc1 (stereo unspecified) [N-[(1,3-dioxo-3a,4,7,7a-tetrahydroisoindol-2-yl)methyl]-N-(4-methoxyphenyl)-2-furancarboxamide]",> 300
8,"Cn1c(SCc2ccccc2C#N)nnc1-c1ccncc1 [2-(4-Methyl-5-pyridin-4-yl-4H-[1,2,4]triazol-3-ylsulfanylmethyl)-benzonitrile]",> 300
9,COc1cc(C=NNC(=O)c2sc(N)c(C#N)c2C)ccc1O [MLS000540774],0.436
10,COc1ccccc1Nc1nc(N(C)c2ccccc2)nc(N)c1[N+](=O)[O-] [SMR000542836],> 300
11,COc1ccc(-c2nn(-c3ccccc3)cc2C(=O)O)cc1 [SMR000015534],> 300
12,CC(=NNC(=S)Nc1c(C)cccc1C)c1cc2ccccc2o1 [SMR000260555],> 300
13,COc1cccc(C(=O)CN2C=CC=CC2=CN=O)c1 [2-[(hydroxyimino)methyl]-1-[2-(3-methoxyphenyl)-2-oxoethyl]pyridinium],> 300
14,CCOc1ccc(N2C(=O)S/C(=C\c3cccn3C)C2=O)cc1 [MLS000580380],> 300
15,O=NCc1cn(CCC(=O)O)nc1-c1cccc([N+](=O)[O-])c1 [SMR000371064],7.38
16,"Cc1ccc(C2c3c(n[nH]c3C)N=C3CC(C)(C)CC(=O)C32)cc1 (stereo unspecified) [3,7,7-trimethyl-4-(4-methylphenyl)-2,4,6,8-tetrahydro-1H-pyrazolo[3,4-b]quinolin-5-one]",9.26
17,Cc1noc2c1C(c1ccc(N(C)C)cc1)C1C(=O)CC(C)(C)CC1=N2 (stereo unspecified) [MLS000565136],> 300
18,"Cc1cnc(C(=O)OCC(=O)N2c3ccccc3CC2C)cn1 (stereo unspecified) [[2-(2-methyl-2,3-dihydroindol-1-yl)-2-oxoethyl] 5-methylpyrazine-2-carboxylate]",> 300
19,CCOc1ccccc1CNC(=O)CCn1ccc2cc(S(=O)(=O)N3CCCCC3)ccc21 [SMR000629632],> 300
20,Nc1nc(NCCO)nc(NCc2ccccc2)c1[N+](=O)[O-] [2-[[4-amino-6-(benzylamino)-5-nitropyrimidin-2-yl]amino]ethanol],20.2
21,"Nc1ncnc(N(c2ccccc2)C2CCCCC2)c1[N+](=O)[O-] [N-cyclohexyl-5-nitro-N-phenyl-4,6-pyrimidinediamine]",> 300
22,Oc1ccc(-c2nncn2-c2ccccc2)cc1 [SMR000274861],7.15
23,O=C(N1CCN(c2ccccc2F)CC1)C12CC3CC(CC(C3)C1)C2 [SMR000071700],> 300

# Reference: BindingDB's records for doi:10.7270/Q2TX3CTT (Broad Institute, 2010)
